Data from patent publication US10927075B2, “Compositions and methods relating to the treatment of cancer, autoimmune disease, and neurodegenerative disease” (THE JACKSON LABORATORY, priority 2014, dated 2021).

Columns and labels:
[1] = tested on: primary splenic B-cells from AID−/− mice; test: Expansion and viability of activated primary splenic B-cells; conditions: 50-250 nM, four days, αCD40+IL-4 activation
[2] = tested on: Primary mouse B cells (WT); test: Micronuclei assay; format: cell-based; conditions: 100 nM, WT cells, 3 days

## CC(=O)Nc1ccc(/C=C/c2ccc(NC(=S)NC(C)C)cc2S(=O)(=O)O)c(S(=O)(=O)O)c1 [C-1523, (E)-5-acetamido-2-(4-(3-isopropylthioureido)-2-sulfonatostyryl)benzenesulfonate]
[1]
  cellular expansion: expanded identically to vehicle-treated controls
[2]
  increase in micronuclei compared to DMSO: 9 fold
